Our source for the IC50 values is US20250170141A1, “MRGPRX2 MODULATORS AND RELATED METHODS OF TREATMENT” (Escient Pharmaceuticals, Inc., priority 2023, published 2025).

The target in the assay is T1, human MRGPRX2 (Homo sapiens, UniProt Q96LB1).
T1 construct: expressed in transfected cells; host or cells: CHO cells, stably transfected (G418 and Hygromycin B selection)
T1 sequence (Q96LB1 1-330): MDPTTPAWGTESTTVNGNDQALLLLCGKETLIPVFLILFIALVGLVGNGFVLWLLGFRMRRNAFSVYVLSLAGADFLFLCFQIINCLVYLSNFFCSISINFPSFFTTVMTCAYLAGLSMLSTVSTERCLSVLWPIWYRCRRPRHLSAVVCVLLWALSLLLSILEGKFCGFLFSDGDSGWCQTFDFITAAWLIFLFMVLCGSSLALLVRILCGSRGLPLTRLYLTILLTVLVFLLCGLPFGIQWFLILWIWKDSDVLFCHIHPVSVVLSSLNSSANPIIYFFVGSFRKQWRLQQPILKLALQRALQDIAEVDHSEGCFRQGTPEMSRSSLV
Put plainly: MRGPRX2 activity: IP-One Gq HTRF assay in CHO cells, antagonism versus 0.3 uM Cortistatin-14. The assay is classed as cell-based. As to conditions: versus 0.3 uM Cortistatin-14 agonist, CHO cells expressing human MRGPRX2, read-out: MRGPRX2 Antagonist Activity. How it is done:
CHO cells stably transfected to express human MRGPRX2 were maintained in an incubator at 37° C. with 5% CO2 and grown in F12 (HAM) media with 10% fetal bovine serum (FBS), 1% Glutamax, 1% penicillin/streptomycin, 800 μg/mL Geneticin (G418), and 300 μg/mL Hygromycin B.
Cells were plated in a 384-well assay plate at 20,000 cells per well in 12 μL of Opti-MEM and kept in an incubator overnight. On the day of the assay, compounds solubilized at 10 mM in DMSO were added as a 10-point curve (30 uM final top concentration with 1:3 serial dilutions) using a Tecan D300E digital dispenser. Agonists were diluted in assay buffer (final concentrations of 5.7 mM Tris-HCl, 43 mM NaCl, 50 mM LiCl, pH=8) and 2 μL of the agonist Cortistatin-14 (CPC Scientific, catalog CORT-002) are added to each well. Final concentrations of agonists were 0.3 μM Cortistatin. Final concentrations of DMSO were kept consistent across the plate. Plates were incubated in the dark for 1 h at 37° C. and then for 1 h at room temperature. IP-1 standards and HTRF detection reagents were added according to the IP-One—Gq Kit purchased from Cisbio (part number 62IPAPEJ) and incubated in the dark for 1 h at room temperature. The plate was read on a Molecular Devices SpectraMax iD5 plate reader. The HTRF ratio was calculated from the raw data and graphed using GraphPad Prism to calculate an IC50 value for each compound.
The activity ranges are denoted as follows: “+++++” denotes antagonist activity <100 nM; “++++” denotes antagonist activity between 100 and 500 nM; “+++” denotes activity between 501 and 1000 nM; “++” denotes activity between 1001 and 2500 nM; and “+” denotes activity >2500 nM.
For orientation: Time-resolved FRET reads energy transfer from a long-lived donor to a nearby acceptor.

Consider `CCC(c1ccccc1F)c1cccc2c1NC(NCc1ncccc1F)=NS2(=O)=O` (stereo not shown) [Compound 21-1, 5-(1-(2-fluorophenyl)propyl)-3-(((3-fluoropyridin-2-yl)methyl)amino)-4H-benzo[e][1,2,4]thiadiazine 1,1-dioxide], for which the IC50 was < 100 nM.
For the compound `CC(c1ccc(N(C)C)cc1)c1c(F)ccc2c1NC(NCc1cccc(F)c1)=NS2(=O)=O` (stereo not shown) [Compound 22-13, 5-(1-(4-(dimethylamino)phenyl)ethyl)-6-fluoro-3-((3-fluorobenzyl)amino)-4H-benzo[e][1,2,4]thiadiazine 1,1-dioxide], the IC50 lay within 100 to 500 nM.
As for `O=S1(=O)N=C(NCc2cc(F)ccc2F)Nc2c1ccc(F)c2Oc1ccccc1Cl` [Compound 1-23, 5-(2-chlorophenoxy)-3-((2,5-difluorobenzyl)amino)-6-fluoro-4H-benzo[e][1,2,4]thiadiazine 1,1-dioxide], the IC50 was < 100 nM.
The figure for `COc1ccccc1CNC1=NS(=O)(=O)c2cccc(Cc3ccccc3Cl)c2N1` [Compound 12-24, 5-(2-chlorobenzyl)-3-((2-methoxybenzyl)amino)-4H-benzo[e][1,2,4]thiadiazine 1,1-dioxide] is < 100 nM.
Turning to `CC(c1ccccc1F)c1c(F)ccc2c1NC(NCc1cc(Cl)cc(Cl)c1)=NS2(=O)=O` (stereo not shown) [Compound 7-8, 3-((3,5-dichlorobenzyl)amino)-6-fluoro-5-(1-(2-fluorophenyl)ethyl)-4H-benzo[e][1,2,4]thiadiazine 1,1-dioxide], the IC50 is < 100 nM.
The figure for `O=S1(=O)N=C(NCc2ccc(F)cc2)Nc2c1ccc(F)c2Oc1ccccc1Cl` [Compound 1-12, 5-(2-chlorophenoxy)-6-fluoro-3-((4-fluorobenzyl)amino)-4H-benzo[e][1,2,4]thiadiazine 1,1-dioxide] is 100 to 500 nM.
As to `O=S1(=O)N=C(NCc2ccccc2F)Nc2c(Cc3ccccc3)cccc21` [Compound 6-3, 5-benzyl-3-((2-fluorobenzyl)amino)-4H-benzo[e][1,2,4]thiadiazine 1,1-dioxide], the IC50 is < 100 nM.
Turning to `CC(c1cccc(N(C)C)c1)c1c(F)ccc2c1NC(NCc1cccc(F)c1)=NS2(=O)=O` (stereo not shown) [Compound 22-23, 5-(1-(3-(dimethylamino)phenyl)ethyl)-6-fluoro-3-((3-fluorobenzyl)amino)-4H-benzo[e][1,2,4]thiadiazine 1,1-dioxide], the IC50 was 100 to 500 nM.
For `CC(Cc1ccc(F)cc1)c1c(F)ccc2c1NC(NCc1cccc(F)c1)=NS2(=O)=O` (stereo not shown) [Compound 22-17, 6-fluoro-3-((3-fluorobenzyl)amino)-5-(1-(4-fluorophenyl)propan-2-yl)-4H-benzo[e][1,2,4]thiadiazine 1,1-dioxide], the IC50 was < 100 nM.
For `O=S1(=O)N=C(NCc2ncccc2Cl)Nc2c(/C=C/c3ccccc3F)cccc21` [Compound 14-1, (E)-3-(((3-chloropyridin-2-yl)methyl)amino)-5-(2-fluorostyryl)-4H-benzo[e][1,2,4]thiadiazine 1,1-dioxide], the IC50 was < 100 nM.
As to `C[C@@H](NC1=NS(=O)(=O)c2ccc(F)c(Oc3ccccc3Cl)c2N1)c1ccccc1F` [Compound 2-3, (R)-5-(2-chlorophenoxy)-6-fluoro-3-((1-(2-fluorophenyl)ethyl)amino)-4H-benzo[e][1,2,4]thiadiazine 1,1-dioxide], the IC50 is > 2500 nM.
Regarding `O=S1(=O)N=C(NCc2cccnc2F)Nc2c(Cc3ccccc3Cl)cccc21` [Compound 12-28, 5-(2-chlorobenzyl)-3-(((2-fluoropyridin-3-yl)methyl)amino)-4H-benzo[e][1,2,4]thiadiazine 1,1-dioxide], the IC50 was < 100 nM.
For the compound `O=S1(=O)N=C(NCc2ncccc2F)Nc2c1cc(F)c(F)c2Cc1ccccc1Cl` [Compound 4-5, 5-(2-chlorobenzyl)-6,7-difluoro-3-(((3-fluoropyridin-2-yl)methyl)amino)-4H-benzo[e][1,2,4]thiadiazine 1,1-dioxide], the IC50 is 100 to 500 nM.
Consider `O=S1(=O)N=C(N2CCc3cccnc3C2)Nc2c1ccc(F)c2Oc1ccccc1Cl` [Compound 1-52, 5-(2-chlorophenoxy)-3-(5,8-dihydro-1,7-naphthyridin-7(6H)-yl)-6-fluoro-4H-benzo[e][1,2,4]thiadiazine 1,1-dioxide], for which the IC50 is > 2500 nM.
For the compound `O=S1(=O)N=C(NCc2ncccc2F)Nc2c1cc(F)c(Cl)c2Oc1ccccc1Cl` [Compound 1-48, 6-chloro-5-(2-chlorophenoxy)-7-fluoro-3-(((3-fluoropyridin-2-yl)methyl)amino)-4H-benzo[e][1,2,4]thiadiazine 1,1-dioxide], the IC50 is < 100 nM.
On to `O=S1(=O)N=C(NCc2cccnc2F)Nc2c1ccc(F)c2Oc1ccccc1Cl` [Compound 2-5, 5-(2-chlorophenoxy)-6-fluoro-3-(((2-fluoropyridin-3-yl)methyl)amino)-4H-benzo[e][1,2,4]thiadiazine 1,1-dioxide], for which the IC50 lay within 100 to 500 nM.
Turning to `COc1ccc(Oc2c(F)ccc3c2NC(NCc2ncccc2F)=NS3(=O)=O)cc1` [Compound 2-11, 6-fluoro-3-(((3-fluoropyridin-2-yl)methyl)amino)-5-(4-methoxyphenoxy)-4H-benzo[e][1,2,4]thiadiazine 1,1-dioxide], the IC50 was in the range of 1000 to 2500 nM.
The value for `COc1ccc(F)c(CNC2=NS(=O)(=O)c3ccc(F)c(Oc4ccccc4Cl)c3N2)n1` [Compound 1-21, 5-(2-chlorophenoxy)-6-fluoro-3-(((3-fluoro-6-methoxypyridin-2-yl)methyl)amino)-4H-benzo[e][1,2,4]thiadiazine 1,1-dioxide] was 501 to 1000 nM; that for `O=S1(=O)N=C(NCc2ccccc2F)Nc2c(Cc3ccc(F)cc3)cccc21` [Compound 6-14, 5-(4-fluorobenzyl)-3-((2-fluorobenzyl)amino)-4H-benzo[e][1,2,4]thiadiazine 1,1-dioxide] was < 100 nM.
In the case of `O=S1(=O)N=C(NCc2ncccc2F)Nc2c1ccc(F)c2Oc1ccc(F)cc1Cl` [Compound 1-18, 5-(2-chloro-4-fluorophenoxy)-6-fluoro-3-(((3-fluoropyridin-2-yl)methyl)amino)-4H-benzo[e][1,2,4]thiadiazine 1,1-dioxide], the IC50 is < 100 nM.
Take `Cc1ccc(C(C)c2c(F)ccc3c2NC(NCc2cccc(F)c2)=NS3(=O)=O)cn1` (stereo not shown) [Compound 22-24, 6-fluoro-3-((3-fluorobenzyl)amino)-5-(1-(6-methylpyridin-3-yl)ethyl)-4H-benzo[e][1,2,4]thiadiazine 1,1-dioxide]: the IC50 is < 100 nM.
Take `O=S1(=O)N=C(NCc2ccccc2F)Nc2c(C3(c4ccccc4)CC3)cccc21` [Compound 6-19, 3-((2-fluorobenzyl)amino)-5-(1-phenylcyclopropyl)-4H-benzo[e][1,2,4]thiadiazine 1,1-dioxide]: the IC50 was < 100 nM.
Turning to `Cc1cc(C(C)c2c(F)ccc3c2NC(NCc2cccc(F)c2)=NS3(=O)=O)ccn1` (stereo not shown) [Compound 22-21, 6-fluoro-3-((3-fluorobenzyl)amino)-5-(1-(2-methylpyridin-4-yl)ethyl)-4H-benzo[e][1,2,4]thiadiazine 1,1-dioxide], the IC50 is < 100 nM.
The figure for `O=S1(=O)N=C(NCc2ncccc2F)Nc2c1ccc(Cl)c2Oc1ccccc1Cl` [Compound 1-43, 6-chloro-5-(2-chlorophenoxy)-3-(((3-fluoropyridin-2-yl)methyl)amino)-4H-benzo[e][1,2,4]thiadiazine 1,1-dioxide] is < 100 nM.
Turning to `Cc1ccccc1CNC1=NS(=O)(=O)c2cccc(Cc3ccccc3Cl)c2N1` [Compound 12-19, 5-(2-chlorobenzyl)-3-((2-methylbenzyl)amino)-4H-benzo[e][1,2,4]thiadiazine 1,1-dioxide], the IC50 was < 100 nM.
On to `O=S1(=O)N=C(NCc2ncccc2F)Nc2c1ccc(Cl)c2Oc1cccc(Cl)c1Cl` [Compound 1-50, 6-chloro-5-(2,3-dichlorophenoxy)-3-(((3-fluoropyridin-2-yl)methyl)amino)-4H-benzo[e][1,2,4]thiadiazine 1,1-dioxide], for which the IC50 was < 100 nM.
With `O=S1(=O)N=C(NCc2cccc(F)n2)Nc2c1ccc(Cl)c2Oc1ccccc1Cl` [Compound 1-46, 6-chloro-5-(2-chlorophenoxy)-3-(((6-fluoropyridin-2-yl)methyl)amino)-4H-benzo[e][1,2,4]thiadiazine 1,1-dioxide], the IC50 was < 100 nM.
As to `O=S1(=O)N=C(NCc2ncccc2F)Nc2c1ccc(F)c2Oc1ccc(Cl)cc1` [Compound 2-9, 5-(4-chlorophenoxy)-6-fluoro-3-(((3-fluoropyridin-2-yl)methyl)amino)-4H-benzo[e][1,2,4]thiadiazine 1,1-dioxide], the IC50 lay within 100 to 500 nM.
